Source: patent US20220267352A1, “RAPAMYCIN ANALOGS AND USES THEREOF” (Anakuria Therapeutics, Inc., priority 2021, published 2022)

Legend:
Assay type in all cases: cell-based
[1] = system: p-p70 S6 Kinase (Thr389) in MCF-7 cells; experiment: AlphaLISA Ultra pS6K1 assay; conditions: Homo sapiens, 1.5 h; MCF7 cells, 90 min
Experimental: Example 55: AlphaLISA Ultra pS6K1 Assay
(§1) Assay Protocol: • 1. Seed MCF-7 cells in Corning 3701 plate and incubate for 20˜24 hour. 12,000˜16,000 cells will be seeded in 36 μL medium per well. • 2. Change the culture medium with fresh medium and incubate for another 2 hours. • 3. Add 12 μL (4×) compounds into the cell plate by HAMILTON. Final DMSO concentration is 0.5%. Incubate for 90 minutes. • 4. Aspirate 38 μL by HAMILTON, 10 μL rest per well. • 5. Add 10 μL 2× lysis buffer using HAMILTON; total volume in wells is 20 μL. Allow cells to shake for 30 min. Cover plate by plastic foil and store plate at −80° C. up to analysis. • 6. Thaw cell lysate at RT and transfer 10 μL lysate to assay plate (Optiplate-384). • 7. Add 5 μL acceptor beads into assay plate and incubation for 2 hours • 8. Add 5 μL donor beads and incubation for 2 hours • 9. Count the plate by EnSpire Multimode Plate Reader

[2] = system: p-Akt 1/2/3 (Ser473) in MCF-7 cells; experiment: AlphaLISA Ultra pAKT assay; conditions: Homo sapiens, 1.5 h; MCF7 cells, 90 min
Experimental: Example 56: AlphaLISA Ultra pAKT Assay
as §1, with “1.” for “1. Seed”, “16,000˜20,000” for “12,000˜16,000”, “90 minutes.” for “2 hours.”, “Incubate for 90 minutes. • 4.” left out

mTORC1 over mTORC2 = mTORC1 over mTORC2 selectivity by comparing pS6K1 and pAKT IC50; conditions: by comparing pS6K1 and pAKT IC50, 90 min
Experimental: as §1, with “Reader […]” for “Reader”
Compounds that are not selective by comparing pS6K1 and pAKT IC50 by kinase assays are indicated by “NO” in the “mTORC1 selective @ 90 min” column of Table 4. […] Compounds that are not selective at the 24 hrs mark are indicated by “NO” in the “mTORC1 selective @ 24 hrs” column of Table 4. “N/A” stands for “not assayed” and “N/C” stands for “not calculated”.

Structure (SMILES)	IC50 [1]	IC50 [2]	mTORC1 selective @ 90 min (mTORC1 over mTORC2)
CO[C@@H]1/C(C)=C/[C@@H](C)C(=O)C[C@@H]([C@H](C)C[C@@H]2CC[C@@H](OCCO)[C@H](OC)C2)OC(=O)[C@@H]2CCCCN2C(=O)C(=O)[C@]2(O)O[C@@H](CC[C@H]2C)CC(OCCOCCN)/C(C)=C/C=C/C=C/[C@@H](C)C[C@@H](C)C(=O)[C@@H]1OC (stereo partly drawn) [I-23, (22E,24E,26E,27E,35R,36S,37R,38R,40S,42S,45S,46R,47R,56R)-44-[2-(2-aminoethoxy)ethoxy]-56-hydroxy-45-[(1R)-2-[(1S,3R,4R)-4-(2-hydroxyethoxy)-3-methoxy-cyclohexyl]-1-methyl-ethyl]-46,47-dimethoxy-35,36,37,38,48,49-hexamethyl-66,67-dioxa-58-azatricyclohexatriaconta-22,24,26(48),27(49)-tetraene-50,51,52,53,54-pentone]	100 to 1000 nM	≥ 1000 nM	Yes
CO[C@@H]1/C(C)=C/[C@@H](C)C(=O)C[C@@H]([C@H](C)C[C@@H]2CC[C@@H](OC(F)F)[C@H](OC)C2)OC(=O)[C@@H]2CCCCN2C(=O)C(=O)[C@]2(O)O[C@@H](CC[C@H]2C)CC(OCC2COCCO2)/C(C)=C/C=C/C=C/[C@@H](C)C[C@@H](C)C(=O)[C@@H]1OC (stereo partly drawn) [I-8, (25E,27E,29E,30E,33R,34S,35R,36R,38S,40S,43S,45R,46R,56R)-43-[(1R)-2-[(1S,3R,4R)-4-(difluoromethoxy)-3-methoxy-cyclohexyl]-1-methyl-ethyl]-42-(1,4-dioxan-2-ylmethoxy)-56-hydroxy-45,46-dimethoxy-33,34,35,36,47,48-hexamethyl-66,67-dioxa-57-azatricyclohexatriaconta-25,27,29(47),30(48)-tetraene-49,50,51,52,53-pentone]	10 to 100 nM	≥ 1000 nM	Yes
CO[C@@H]1/C(C)=C/[C@@H](C)C(=O)C[C@@H]([C@H](C)C[C@@H]2CC[C@@H](OC)[C@H](OC)C2)OC(=O)[C@@H]2CCCCN2C(=O)C(=O)[C@]2(O)O[C@@H](CC[C@H]2C)CC(OCCOCCN)/C(C)=C/C=C/C=C/[C@@H](C)C[C@@H](C)C(=O)[C@@H]1OC (stereo partly drawn) [I-22]	100 to 1000 nM	≥ 1000 nM	Yes
CO[C@@H]1C[C@H](C[C@@H](C)[C@@H]2CC(=O)[C@H](C)/C=C(\C)[C@@H](O)[C@@H](OC)C(=O)[C@H](C)C[C@H](C)/C=C/C=C/C=C(\C)[C@H](OCCOC3COC3)C[C@@H]3CC[C@@H](C)[C@@](O)(O3)C(=O)C(=O)N3CCCC[C@H]3C(=O)O2)CC[C@H]1OC(=O)N(C)CCN1CCOCC1 [I-17, [(43S,45R,47R)-4-[(2R)-2-[(28E,30E,32E,33E,39R,40S,41R,42R,44S,46S,48R,49S,51R,52R,62R)-51,62-dihydroxy-52-methoxy-39,40,41,42,53,54-hexamethyl-48-[2-(oxetan-3-yloxy)ethoxy]-55,56,57,58,59-pentaoxo-76,77-dioxa-64-azatricyclohexatriaconta-28,30,32(53),33(54)-tetraen-49-yl]propyl]-47-methoxy-45-cyclohexyl] N-methyl-N-(2-morpholinoethyl)carbamate]	1 to 10 nM	≥ 1000 nM	Yes

Now from value to compound, other results behind:

IC50 [1]	IC50 [2]	Structure (SMILES)	mTORC1 selective @ 90 min (mTORC1 over mTORC2)
< 1 nM	≥ 1000 nM	CO[C@@H]1C[C@H](C[C@@H](C)[C@@H]2CC(=O)[C@H](C)/C=C(\C)[C@@H](O)[C@@H](OC)C(=O)[C@H](C)C[C@H](C)/C=C/C=C/C=C(\C)C(OCCOC3CCOCC3)C[C@@H]3CC[C@@H](C)[C@@](O)(O3)C(=O)C(=O)N3CCCC[C@H]3C(=O)O2)CC[C@H]1OP(C)(C)=O (stereo partly drawn) [I-86, (1R,9S,12S,15R,16E,18R,19R,21R,23S,24E,26E,28E,32S,35R)-12-[(1R)-2-[(1S,3R,4R)-4-dimethylphosphoryloxy-3-methoxy-cyclohexyl]-1-methyl-ethyl]-1,18-dihydroxy-19-methoxy-15,17,21,23,29,35-hexamethyl-30-(2-tetrahydropyran-4-yloxyethoxy)-11,36-dioxa-4-azatricyclo[30.3.1.0^4,9]hexatriaconta-16,24,26,28-tetraene-2,3,10,14,20-pentone]	Yes
< 1 nM	≥ 1000 nM	CO[C@@H]1C[C@H](C[C@@H](C)[C@@H]2CC(=O)[C@H](C)/C=C(\C)[C@@H](O)[C@@H](OC)C(=O)[C@H](C)C[C@H](C)/C=C/C=C/C=C(\C)[C@H](OCC3COCCO3)C[C@@H]3CC[C@@H](C)[C@@](O)(O3)C(=O)C(=O)N3CCCC[C@H]3C(=O)O2)CC[C@H]1OC(=O)NCCN1CCOCC1 (stereo partly drawn) [I-102, [(42S,44R,46R)-4-[(2R)-2-[(28E,30E,32E,33E,38R,39S,40R,41R,43S,45S,47R,48S,50R,51R,61R)-47-(1,4-dioxan-2-ylmethoxy)-50,61-dihydroxy-51-methoxy-38,39,40,41,52,53-hexamethyl-54,55,56,57,58-pentaoxo-76,77-dioxa-64-azatricyclohexatriaconta-28,30,32(52),33(53)-tetraen-48-yl]propyl]-46-methoxy-44-cyclohexyl] N-(2-morpholinoethyl)carbamate]	Yes
1 to 10 nM	≥ 1000 nM	CO[C@@H]1C[C@H](C[C@@H](C)[C@@H]2CC(=O)[C@H](C)/C=C(\C)[C@@H](O)[C@@H](OC)C(=O)[C@H](C)C[C@H](C)/C=C/C=C/C=C(\C)C(OCCOC3COC3)C[C@@H]3CC[C@@H](C)[C@@](O)(O3)C(=O)C(=O)N3CCCC[C@H]3C(=O)O2)CC[C@H]1OCCCN1CCN(C)CC1 (stereo partly drawn) [I-15, (28E,30E,32E,33E,40R,41S,42R,43R,45S,47S,50S,52R,53R,62R)-52,62-dihydroxy-53-methoxy-50-[(1R)-2-[(1S,3R,4R)-3-methoxy-4-[3-(4-methylpiperazin-1-yl)propoxy]cyclohexyl]-1-methyl-ethyl]-40,41,42,43,54,55-hexamethyl-49-[2-(oxetan-3-yloxy)ethoxy]-74,75-dioxa-65-azatricyclohexatriaconta-28,30,32(54),33(55)-tetraene-56,57,58,59,60-pentone]	Yes
1 to 10 nM	≥ 1000 nM	CO[C@@H]1C[C@H](C[C@@H](C)[C@@H]2CC(=O)[C@H](C)/C=C(\C)[C@@H](O)[C@@H](OC)C(=O)[C@H](C)C[C@H](C)/C=C/C=C/C=C(\C)C(OCCOC3COC3)C[C@@H]3CC[C@@H](C)[C@@](O)(O3)C(=O)C(=O)N3CCCC[C@H]3C(=O)O2)CC[C@H]1OP(C)(C)=O (stereo partly drawn) [I-89, (1R,9S,12S,15R,16E,18R,19R,21R,23S,24E,26E,28E,32S,35R)-12-[(1R)-2-[(1S,3R,4R)-4-dimethylphosphoryloxy-3-methoxy-cyclohexyl]-1-methyl-ethyl]-1,18-dihydroxy-19-methoxy-15,17,21,23,29,35-hexamethyl-30-[2-(oxetan-3-yloxy)ethoxy]-11,36-dioxa-4-azatricyclo[30.3.1.04,9]hexatriaconta-16,24,26,28-tetraene-2,3,10,14,20-pentone]	Yes
< 1 nM	≥ 1000 nM	COCCO[C@@H]1CC[C@@H](C[C@@H](C)[C@@H]2CC(=O)[C@H](C)/C=C(\C)[C@@H](O)[C@@H](OC)C(=O)[C@H](C)C[C@H](C)/C=C/C=C/C=C(\C)C(OC[C@@H]3COCCO3)C[C@@H]3CC[C@@H](C)[C@@](O)(O3)C(=O)C(=O)N3CCCC[C@H]3C(=O)O2)C[C@H]1OC (stereo partly drawn) [I-76, (1R,9S,12S,15R,16E,18R,19R,21R,23S,24E,26E,28E,32S,35R)-30-[[(2S)-1,4-dioxan-2-yl]methoxy]-1,18-dihydroxy-19-methoxy-12-[(1R)-2-[(1S,3R,4R)-3-methoxy-4-(2-methoxyethoxy)cyclohexyl]-1-methyl-ethyl]-15,17,21,23,29,35-hexamethyl-11,36-dioxa-4-azatricyclo[30.3.1.0^4,9]hexatriaconta-16,24,26,28-tetraene-2,3,10,14,20-pentone]	Yes
